Here are results for 23 molecules from patent publication US20110166121A1 (LG LIFE SCIENCES LTD., priority 2008, published 2011).

Bounds are passed on as bounds.

In one experiment the target is T1, Human P2Y12 receptor (Homo sapiens, UniProt Q9H244).
T1 construct: expressed in transfected cells; host or cells: HEK cells
Put plainly: Human P2Y12 receptor cell membrane binding assay with [3H] 2-Mes-ADP. The conditions noted are these: 1 nM [3H] 2-Mes-ADP, membranes of HEK cells expressing P2Y12 receptor; read-out: Binding activity (IC50). In short, it runs like this: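 Competition binding used 1 nM [3H]2-MeS-ADP on P2Y12-expressing HEK cell membranes for 1 h at room temperature, followed by filtration and scintillation counting.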

Experiment [1] has as its system Human platelet aggregation caused by ADP. As to the kind of experiment: Inhibition of ADP-induced platelet aggregation (Mimic-human PRP). To be noted: 20 μM ADP, human platelet concentrate diluted with PPP, absorption at 595 nm. It is filed as cell-based. In a few lines: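 Ki came from non-linear sigmoidal fits of inhibition, measured as the 3-min rise in absorbance at 595 nm after 20 μM ADP, relative to 0/20 μM ADP controls. Platelets (3–4×10^8/mL in PPP-diluted human PRP) were exposed to 0.01–30 μM compound for 20 min at room temperature beforehand.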

What is called IC50 is the concentration that inhibits the measured activity by half. What is called Ki is the equilibrium dissociation constant of an inhibitor or competing ligand from its target. Read a high Ki as lower affinity.

T1 sequence (Q9H244 whole entry): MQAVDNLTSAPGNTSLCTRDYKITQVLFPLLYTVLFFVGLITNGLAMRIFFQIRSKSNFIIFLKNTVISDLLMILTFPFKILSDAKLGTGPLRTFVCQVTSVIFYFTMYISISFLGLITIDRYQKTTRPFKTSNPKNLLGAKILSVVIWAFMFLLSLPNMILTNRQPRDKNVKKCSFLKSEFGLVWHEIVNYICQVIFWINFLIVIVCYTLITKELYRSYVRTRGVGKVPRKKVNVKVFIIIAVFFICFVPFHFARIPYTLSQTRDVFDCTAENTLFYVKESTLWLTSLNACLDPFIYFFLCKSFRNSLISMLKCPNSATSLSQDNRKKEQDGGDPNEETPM

In the case of `CCCc1cc2c(N3CCn4c(nnc4C(F)(F)F)C3)nc(N3CC[C@H](C(=O)O)C3)nc2s1` [Example 1-57, (S)-1-[6-Propyl-4-(3-trifluoromethyl-5,6-dihydro-8H-[1,2,4]triazolo[4,3-a]pyrazin-7-yl)-thieno[2,3-d]pyrimidin-2-yl]-pyrrolidine-3-carboxylic acid], the IC50 on Human P2Y12 receptor is 15 nM. The same molecule returned a Ki in experiment [1] of 54 nM.
With `CCCc1cc2c(N3CCn4c(nnc4C(F)(F)F)C3)nc(N3CC[C@H](C(=O)OC(C)C)C3)nc2s1` [Example 1-58, (S)-1-[6-Propyl-4-(3-trifluoromethyl-5,6-dihydro-8H-[1,2,4]triazolo[4,3-a]pyrazin-7-yl)-thieno[2,3-d]pyrimidin-2-yl]-pyrrolidine-3-carboxylic acid isopropyl ester], the IC50 on Human P2Y12 receptor came to 190 nM. For the same molecule, the Ki in experiment [1] amounted to 700 nM.
For `CCCc1cc2c(N3CCn4c(nnc4C(F)(F)F)C3)nc(N3CC[C@H](C(=O)OCOC(=O)C(C)(C)C)C3)nc2s1` [Example 1-59, (S)-1-[6-Propyl-4-(3-trifluoromethyl-5,6-dihydro-8H-[1,2,4]triazolo[4,3-a]pyrazin-7-yl)-thieno[2,3-d]pyrimidin-2-yl]-pyrrolidine-3-carboxylic acid 2,2-dimethyl-propionyloxymethyl ester], in that order: 440 nM and 1450 nM.
With `CCCc1cc2c(N3CCn4c(nnc4C(F)(F)F)C3)nc(N3CC[C@@H](C(=O)O)C3)nc2s1` [Example 1-61, (R)-1-[6-Propyl-4-(3-trifluoromethyl-5,6-dihydro-8H-[1,2,4]triazolo[4,3-a]pyrazin-7-yl)-thieno[2,3-d]pyrimidin-2-yl]-pyrrolidine-3-carboxylic acid], the IC50 at Human P2Y12 receptor came out at 11 nM. Moreover, in experiment [1], the Ki was 7300 nM.
Consider `CCCc1cc2c(N3CCn4c(nnc4C(F)(F)F)C3)nc(N3CC[C@@H](C(=O)OC(C)C)C3)nc2s1` [Example 1-62, (R)-1-[6-Propyl-4-(3-trifluoromethyl-5,6-dihydro-8H-[1,2,4]triazolo[4,3-a]pyrazin-7-yl)-thieno[2,3-d]pyrimidin-2-yl]-pyrrolidine-3-carboxylic acid isopropyl ester], for which the IC50 at Human P2Y12 receptor is 320 nM. The affinity in experiment [1], expressed as Ki, was 200 nM.
As for `CCCc1cc2c(N3CCn4c(nnc4C(F)(F)F)C3)nc(N3CC[C@@H](C(=O)OCOC(=O)C(C)(C)C)C3)nc2s1` [Example 1-63, (R)-1-[6-Propyl-4-(3-trifluoromethyl-5,6-dihydro-8H-[1,2,4]triazolo[4,3-a]pyrazin-7-yl)-thieno[2,3-d]pyrimidin-2-yl]-pyrrolidine-3-carboxylic acid 2,2-dimethyl-propionyloxymethyl ester], on Human P2Y12 receptor, the IC50 was 520 nM. In experiment [1], the affinity corresponds to a Ki of 1000 nM.
For `CCCc1cc2c(N3CCn4c(nnc4C(F)(F)F)C3)nc(N(C)C)nc2s1` [Example 1-64, Dimethyl-[6-propyl-4-(3-trifluoromethyl-5,6-dihydro-8H-[1,2,4]triazolo[4,3-a]pyrazin-7-yl)-thieno[2,3-d]pyrimidin-2-yl]-amine], in that order: 170 nM and above 4000 nM.
`CCCc1cc2c(N3CCn4c(nnc4C(F)(F)F)C3)nc(N3CCc4ccccc4C3)nc2s1` [Example 1-65, 2-[6-Propyl-4-(3-trifluoromethyl-5,6-dihydro-8H-[1,2,4]triazolo[4,3-a]pyrazin-7-yl)-thieno[2,3-d]pyrimidin-2-yl]-1,2,3,4-tetrahydro-isoquinoline]: the IC50 on Human P2Y12 receptor is 257 nM. The molecule further gave a Ki in experiment [1] of 260 nM.
For `CCCc1cc2c(N3CCn4c(nnc4C(F)(F)F)C3)nc(N3CCc4cc(OC)c(OC)cc4C3)nc2s1` [Example 1-66, 6,7-Dimethoxy-2-[6-propyl-4-(3-trifluoromethyl-5,6-dihydro-8H-[1,2,4]triazolo[4,3-a]pyrazin-7-yl)-thieno[2,3-d]pyrimidin-2-yl]-1,2,3,4-tetrahydro-isoquinoline], in that order: 200 nM and 1400 nM.
For `CCCc1cc2c(N3CCn4c(nnc4C(F)(F)F)C3)nc(N3CCc4cc(OC)c(OC)cc4C3CC)nc2s1` (stereo not shown) [Example 1-67, 1-Ethyl-6,7-dimethoxy-2-[6-propyl-4-(3-trifluoromethyl-5,6-dihydro-8H-[1,2,4]triazolo[4,3-a]pyrazin-7-yl)-thieno[2,3-d]pyrimidin-2-yl]-1,2,3,4-tetrahydro-isoquinoline], in that order: 643 nM and above 4000 nM.
On to `CCCc1cc2c(N3CCn4c(nnc4C(F)(F)F)C3)nc(N3CCNc4ccccc43)nc2s1` [Example 1-68, 1-[6-Propyl-4-(3-trifluoromethyl-5,6-dihydro-8H-[1,2,4]triazolo[4,3-a]pyrazin-7-yl)-thieno[2,3-d]pyrimidin-2-yl]-1,2,3,4-tetrahydro-quinoxaline], for which the IC50 at Human P2Y12 receptor was 100 nM. Affinity in experiment [1] was put at a Ki of 430 nM.
For `CCCc1cc2c(N3CCn4c(nnc4C(F)(F)F)C3)nc(N3CCC(N)CC3)nc2s1` [Example 1-69, 1-[6-Propyl-4-(3-trifluoromethyl-5,6-dihydro-8H-[1,2,4]triazolo[4,3-a]pyrazin-7-yl)-thieno[2,3-d]pyrimidin-2-yl]-piperidin-4-ylamine], in that order: 82 nM and 300 nM.
As to `CCCc1cc2c(N3CCn4c(nnc4C(F)(F)F)C3)nc(N3CCCC(N)C3)nc2s1` (stereo not shown) [Example 1-70, 1-[6-Propyl-4-(3-trifluoromethyl-5,6-dihydro-8H-[1,2,4]triazolo[4,3-a]pyrazin-7-yl)-thieno[2,3-d]pyrimidin-2-yl]-piperidin-3-ylamine], the IC50 at Human P2Y12 receptor was found to be 167 nM. In experiment [1], this molecule gave a Ki of 110 nM.
For `CCCc1cc2c(N3CCn4c(nnc4C(F)(F)F)C3)nc(N3CCc4ccccc43)nc2s1` [Example 1-71, 7-[2-(2,3-Dihydro-indol-1-yl)-6-propyl-thieno[2,3-d]pyrimidin-4-yl]-3-trifluoromethyl-5,6,7,8-tetrahydro-[1,2,4]triazolo[4,3-a]pyrazine], in that order: 526 nM and above 4000 nM.
Turning to `CCCc1cc2c(N3CCn4c(nnc4C(F)(F)F)C3)nc(N3Cc4ccccc4C3)nc2s1` [Example 1-72, 7-[2-(1,3-Dihydro-isoindol-2-yl)-6-propyl-thieno[2,3-d]pyrimidin-4-yl]-3-trifluoromethyl-5,6,7,8-tetrahydro-[1,2,4]triazolo[4,3-a]pyrazine], the IC50 on Human P2Y12 receptor came to 517 nM. The Ki in experiment [1] is above 4000 nM.
The matching figures for `CCCc1cc2c(N3CCn4c(nnc4C(F)(F)F)C3)nc(-n3ccc4ccccc43)nc2s1` [Example 1-73, 7-(2-Indol-1-yl-6-propyl-thieno[2,3-d]pyrimidin-4-yl)-3-trifluoromethyl-5,6,7,8-tetrahydro-[1,2,4]triazolo[4,3-a]pyrazine]: 360 nM and above 4000 nM.
For `CCCc1cc2c(N3CCn4c(nnc4C(F)(F)F)C3)nc(N3CCn4c(nnc4C(F)(F)F)C3)nc2s1` [Example 1-74, 7,7′-(6-propylthieno[2,3-d]pyrimidine-2,4-diyl)bis[3-(trifluoromethyl)-5,6,7,8-tetrahydro[1,2,4]triazolo[4,3-a]pyrazine]], in that order: 33 nM and 40 nM.
The matching figures for `CCCc1cc2c(N3CCn4c(nnc4C(F)(F)F)C3)nc(N3CCn4cnnc4C3)nc2s1` [Example 1-75, 7-[2-(5,6-Dihydro-8H-[1,2,4]triazolo[4,3-a]pyrazin-7-yl)-6-propyl-thieno[2,3-d]pyrimidin-4-yl]-3-trifluoromethyl-5,6,7,8-tetrahydro-[1,2,4]triazolo[4,3-a]pyrazine]: 32 nM and 7 nM.
Regarding `CCCc1cc2c(N3CCn4c(nnc4C(F)(F)F)C3)nc(N3CCn4ccnc4C3)nc2s1` [Example 1-77, 7-[2-(5,6-Dihydro-8H-imidazo[1,2-a]pyrazin-7-yl)-6-propyl-thieno[2,3-d]pyrimidin-4-yl]-3-trifluoromethyl-5,6,7,8-tetrahydro-[1,2,4]triazolo[4,3-a]pyrazine], the IC50 on Human P2Y12 receptor is 47 nM. The same molecule came in with a Ki in experiment [1] of 60 nM.
Regarding `CCCc1cc2c(N3CCn4c(nnc4C(F)(F)F)C3)nc(N3CCn4cc(C(F)(F)F)nc4C3)nc2s1` [Example 1-78, 7-[6-Propyl-2-(2-trifluoromethyl-5,6-dihydro-8H-imidazo[1,2-a]pyrazin-7-)-thieno[2,3-d]pyrimidin-4-yl]-3-trifluoromethyl-5,6,7,8-tetrahydro-[1,2,4]triazolo[4,3-a]pyrazine], the IC50 at Human P2Y12 receptor came out at 110 nM. In experiment [1], this molecule registered a Ki of 200 nM.
The matching figures for `CCCc1cc2c(N3CCn4c(nnc4C(F)(F)F)C3)nc(N3CCc4sccc4C3)nc2s1` [Example 1-79, 7-[2-(6,7-Dihydro-4H-thieno[3,2-c]pyridin-5-yl)-6-propyl-thieno[2,3-d]pyrimidin-4-yl]-3-trifluoromethyl-5,6,7,8-tetrahydro-[1,2,4]triazolo[4,3-a]pyrazine]: 370 nM and 1250 nM.
For `CCCc1cc2c(N3CCn4c(nnc4C(F)(F)F)C3)nc(NC(Cc3ccc(O)cc3)C(=O)O)nc2s1` (stereo not shown) [Example 1-81, 3-(4-Hydroxy-phenyl)-2-[6-propyl-4-(3-trifluoromethyl-5,6-dihydro-8H-[1,2,4]triazolo[4,3-a]pyrazin-7-yl)-thieno[2,3-d]pyrimidin-2-ylamino]-propionic acid], in that order: 320 nM and 2300 nM.
For `CCCc1cc2c(N3CCn4c(nnc4C(F)(F)F)C3)nc(N3CCN(C(=O)C(F)(F)F)CC3)nc2s1` [Example 1-82, 2,2,2-Trifluoro-1-{4-[6-propyl-4-(3-trifluoromethyl-5,6-dihydro-8H-[1,2,4]triazolo[4,3-a]pyrazin-7-yl)-thieno[2,3-d]pyrimidin-2-yl]-piperazin-1-yl}-ethanone], in that order: 14300 nM and above 4000 nM.
